The record followed here is PubChem BioAssay AID256 (DTP/NCI, 2004).

Where “and” joins values, the source holds several entries; their conditions need not be identical. Equal values may be shown once. Inconclusive results and toxic doses are left out.

The test deals with CD2F1 mice, L1210 leukemia ip, survival T/C. The test can be described thus: NCI In Vivo Anticancer Drug Screen. Data for tumor model L1210 Leukemia (intraperitoneal) in CD2F1 (CDF1) mice. Conditions: endpoint: mean survival time, higher = longer survival. A digest of the protocol: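 Antitumor effect is scored in animals hosting a serially transplanted tumor. Values compare compound-dosed animals against vehicle-only controls as a simple quotient.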

Setting [1] is: dose: 50.0 mg/kg/injection, schedule: Q01DX009 (ip), vehicle: saline.
Setting [2] is: dose: 100.0 mg/kg/injection, schedule: Q01DX009 (ip), vehicle: saline.
[3] abbreviates: dose: 200.0 mg/kg/injection, schedule: Q01DX009 (ip), vehicle: saline.

Consider `Nc1nc(=O)n(C2OC(CO)C(O)C2O)cc1F` (stereo not drawn), for which the T/C by setting is: (dose: 0.25 mg/kg/injection, schedule: Q01DX009 (ip), vehicle: saline) 121 % of control; (dose: 0.5 mg/kg/injection, schedule: Q01DX009 (sc), vehicle: saline) 97 % of control; (dose: 1.0 mg/kg/injection, schedule: Q03HX024 (ip), vehicle: saline) 346 % of control; (dose: 2.0 mg/kg/injection, schedule: Q01DX009 (sc), vehicle: saline) 121 % of control; (dose: 4.0 mg/kg/injection, schedule: Q01DX009 (ip), vehicle: saline) 157 % of control; (dose: 4.0 mg/kg/injection, schedule: Q08DX002 (ip), vehicle: saline) 106 % of control. The T/C is 152 % of control (dose: 8.0 mg/kg/injection, schedule: Q01DX009 (sc), vehicle: saline); 540 % of control (dose: 8.0 mg/kg/injection, schedule: Q03HX024 (ip), vehicle: saline); 218 % of control and 227 % of control (dose: 12.5 mg/kg/injection, schedule: Q01DX009 (ip), vehicle: saline); 186 % of control and 194 % of control (dose: 16.0 mg/kg/injection, schedule: Q01DX009 (ip), vehicle: saline); 248 % of control (dose: 16.0 mg/kg/injection, schedule: Q03HX016 (ip), vehicle: saline); 327 % of control (dose: 16.0 mg/kg/injection, schedule: Q03HX024 (oral), vehicle: saline). The T/C (dose: 16.0 mg/kg/injection, schedule: Q08DX002 (ip), vehicle: saline) was 114 % of control; the T/C (dose: 18.8 mg/kg/injection, schedule: Q01DX008 (ip), vehicle: saline) is 189 % of control; the T/C (dose: 18.8 mg/kg/injection, schedule: Q01DX008 (oral), vehicle: saline) was 167 % of control; the T/C (dose: 20.0 mg/kg/injection, schedule: Q01DX007 (ip), vehicle: saline) was 195 % of control; the T/C (dose: 20.0 mg/kg/injection, schedule: Q01DX009 (ip), vehicle: saline) was 187 % of control; the T/C (dose: 20.0 mg/kg/injection, schedule: Q04DX003 (ip), vehicle: saline) was 152 % of control. In addition, the T/C is, setting by setting: (dose: 25.0 mg/kg/injection, schedule: Q01DX009 (ip), vehicle: saline) 215 % of control and 233 % of control; (dose: 32.0 mg/kg/injection, schedule: Q01DX009 (ip), vehicle: saline) 244 % of control; (dose: 32.0 mg/kg/injection, schedule: Q01DX009 (oral), vehicle: saline) 163 % of control; (dose: 32.0 mg/kg/injection, schedule: Q01DX009 (sc), vehicle: saline) 196 % of control; (dose: 32.0 mg/kg/injection, schedule: Q03HX008 (ip), vehicle: saline) 120 % of control; (dose: 37.5 mg/kg/injection, schedule: Q01DX008 (ip), vehicle: saline) 169 % of control. For the same molecule, the T/C by setting is: (dose: 37.5 mg/kg/injection, schedule: Q01DX008 (oral), vehicle: saline) 175 % of control; (dose: 40.0 mg/kg/injection, schedule: Q01DX007 (ip), vehicle: saline) 204 % of control; (dose: 40.0 mg/kg/injection, schedule: Q01DX009 (ip), vehicle: saline) 229 % of control; (dose: 40.0 mg/kg/injection, schedule: Q04DX003 (ip), vehicle: saline) 152 % of control; under setting [1], 153 % of control and 166 % of control; (dose: 64.0 mg/kg/injection, schedule: Q01DX009 (ip), vehicle: saline) 221 % of control. The T/C runs as follows: (dose: 64.0 mg/kg/injection, schedule: Q01DX009 (oral), vehicle: saline) 176 % of control; (dose: 64.0 mg/kg/injection, schedule: Q03HX016 (ip), vehicle: saline) 377 % of control; (dose: 64.0 mg/kg/injection, schedule: Q03HX024 (oral), vehicle: saline) 90 % of control; (dose: 64.0 mg/kg/injection, schedule: Q08DX002 (ip), vehicle: saline) 116 % of control; (dose: 75.0 mg/kg/injection, schedule: Q01DX008 (oral), vehicle: saline) 202 % of control; (dose: 75.0 mg/kg/injection, schedule: Q04DX003 (ip), vehicle: saline) 182 % of control. Besides, the T/C was 161 % of control (dose: 80.0 mg/kg/injection, schedule: Q01DX007 (ip), vehicle: saline); 117 % of control (dose: 80.0 mg/kg/injection, schedule: Q01DX009 (ip), vehicle: saline); 157 % of control (dose: 80.0 mg/kg/injection, schedule: Q04DX003 (ip), vehicle: saline); 113 % of control and 115 % of control under setting [2]; 120 % of control (dose: 128.0 mg/kg/injection, schedule: Q01DX001 (ip), vehicle: saline); 123 % of control (dose: 128.0 mg/kg/injection, schedule: Q01DX001 (sc), vehicle: saline). Moreover, the T/C is 114 % of control (dose: 128.0 mg/kg/injection, schedule: Q01DX009 (ip), vehicle: saline); 88 % of control (dose: 128.0 mg/kg/injection, schedule: Q01DX009 (sc), vehicle: saline); 163 % of control (dose: 128.0 mg/kg/injection, schedule: Q04DX003 (ip), vehicle: saline); 158 % of control (dose: 128.0 mg/kg/injection, schedule: Q04DX003 (oral), vehicle: saline); 110 % of control (dose: 150.0 mg/kg/injection, schedule: Q01DX001 (ip), vehicle: saline); 115 % of control (dose: 150.0 mg/kg/injection, schedule: Q01DX001 (oral), vehicle: saline). In addition, the T/C is 151 % of control (dose: 150.0 mg/kg/injection, schedule: Q04DX003 (ip), vehicle: saline); 101 % of control under setting [3]; 109 % of control (dose: 256.0 mg/kg/injection, schedule: Q01DX009 (oral), vehicle: saline); 171 % of control (dose: 256.0 mg/kg/injection, schedule: Q04DX003 (oral), vehicle: saline); 115 % of control (dose: 300.0 mg/kg/injection, schedule: Q01DX001 (oral), vehicle: saline); 239 % of control (dose: 300.0 mg/kg/injection, schedule: Q04DX003 (ip), vehicle: saline). The T/C (dose: 512.0 mg/kg/injection, schedule: Q01DX001 (sc), vehicle: saline) is 153 % of control; the T/C (dose: 512.0 mg/kg/injection, schedule: Q04DX003 (oral), vehicle: saline) was 206 % of control; the T/C (dose: 600.0 mg/kg/injection, schedule: Q01DX001 (ip), vehicle: saline) was 172 % of control; the T/C (dose: 600.0 mg/kg/injection, schedule: Q04DX003 (ip), vehicle: saline) was 259 % of control; the T/C (dose: 1024.0 mg/kg/injection, schedule: Q01DX001 (ip), vehicle: saline) was 161 % of control; the T/C (dose: 1024.0 mg/kg/injection, schedule: Q01DX001 (sc), vehicle: saline) is 239 % of control. Besides, the T/C is, setting by setting: (dose: 1024.0 mg/kg/injection, schedule: Q04DX003 (ip), vehicle: saline) 286 % of control; (dose: 1024.0 mg/kg/injection, schedule: Q04DX003 (oral), vehicle: saline) 122 % of control; (dose: 1024.0 mg/kg/injection, schedule: Q08DX002 (ip), vehicle: saline) 250 % of control; (dose: 1200.0 mg/kg/injection, schedule: Q01DX001 (ip), vehicle: saline) 183 % of control.

Take `c1ccc2c[n+]3cc4ccccc4cc3cc2c1`: the T/C reads like this: (dose: 12.5 mg/kg/injection, schedule: Q04DX003 (ip), vehicle: saline) 104 % of control; (dose: 25.0 mg/kg/injection, schedule: Q04DX003 (ip), vehicle: saline) 97 % of control.

With `N=C(N)N1CCc2ccccc2C1`, the T/C is 103 % of control (dose: 18.8 mg/kg/injection, schedule: Q01DX009 (ip), vehicle: saline); 98 % of control (dose: 37.5 mg/kg/injection, schedule: Q01DX009 (ip), vehicle: saline); 97 % of control (dose: 75.0 mg/kg/injection, schedule: Q01DX001 (ip), vehicle: saline); 103 % of control (dose: 75.0 mg/kg/injection, schedule: Q01DX009 (ip), vehicle: saline).

Regarding `Clc1ccc2ccc(Cl)cc2c1`, the T/C was 94 % of control (dose: 100.0 mg/kg/injection, schedule: Q01DX009 (ip), vehicle: saline with Tween-80); 96 % of control (dose: 200.0 mg/kg/injection, schedule: Q01DX009 (ip), vehicle: saline with Tween-80); 105 % of control (dose: 400.0 mg/kg/injection, schedule: Q01DX009 (ip), vehicle: saline with Tween-80).

With `COc1ccc(CCN)cc1OC`, the T/C is 94 % of control under setting [1]; 94 % of control under setting [2]; 97 % of control (dose: 100.0 mg/kg/injection, schedule: Q04DX003 (ip), vehicle: saline with Tween-80); 97 % of control under setting [3]; 93 % of control (dose: 200.0 mg/kg/injection, schedule: Q04DX003 (ip), vehicle: saline with Tween-80).
